# Measured values published in publication PMC9235892 (Virulence, 2022).
# System: SARS-CoV-2 169 R
# Format: cell-based
row,Compound,effect on viral load in 169 R-infected cultures (plaque assay)
1,CN1CCN(C[C@H](O)CO[C@H]2CC[C@@]3(C)C(CCC4C3CC[C@]3(C)C(=O)CCC43)C2)CC1 (some centres unmarked) [LNB167],no reduction in viral load
2,CN1CCN(C[C@@H](O)CO[C@H]2CC[C@@]3(C)C(CCC4C3CC[C@]3(C)C(=O)CCC43)C2)CC1 (some centres unmarked) [LNB169],no reduction in viral load
